Source: ChEMBL document CHEMBL1201862, “PubChem BioAssay data set” (2004)
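Dose response: 5 concentrations. Exposure: 48 h. Format: 96-well plates. Endpoint: linear interpolation; highest concentration if not reached. At the GI50, growth is halved.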 The source made the active and inactive calls. Cut-off read from the data, not from the text of the source: active = GI50 up to about 1.1 µM and inactive = higher.

Assays:
Assay in all cases: growth of human tumour cells (NCI), 48 h
786-0 = tested on: 786-0
A549 = tested on: A549
ACHN = tested on: ACHN
CAKI-1 = tested on: CAKI-1
COLO 205 = tested on: COLO 205
DLD-1 = tested on: DLD-1
HCC 2998 = tested on: HCC 2998
HCT-116 = tested on: HCT-116
HCT-15 = tested on: HCT-15
HL-60 = tested on: HL-60
HOP-62 = tested on: HOP-62
HOP-92 = tested on: HOP-92
HT-29 = tested on: HT-29
IGROV-1 = tested on: IGROV-1
K562 = tested on: K562
KM-20L2 = tested on: KM-20L2
KM12 = tested on: KM12
LOX IMVI = tested on: LOX IMVI
LXFL 529 = tested on: LXFL 529
M14 = tested on: M14
M19-MEL = tested on: M19-MEL
MOLT-4 = tested on: MOLT-4
Malme-3M = tested on: Malme-3M
NCI-H226 = tested on: NCI-H226
NCI-H23 = tested on: NCI-H23
NCI-H460 = tested on: NCI-H460
NCI-H522 = tested on: NCI-H522
OVCAR-3 = tested on: OVCAR-3
OVCAR-4 = tested on: OVCAR-4
OVCAR-5 = tested on: OVCAR-5
OVCAR-8 = tested on: OVCAR-8
RPMI-8226 = tested on: RPMI-8226
SF-268 = tested on: SF-268
SF-295 = tested on: SF-295
SF-539 = tested on: SF-539
SK-MEL-28 = tested on: SK-MEL-28
SK-MEL-2 = tested on: SK-MEL-2
SK-OV-3 = tested on: SK-OV-3
SN12C = tested on: SN12C
SNB-19 = tested on: SNB-19
SNB-75 = tested on: SNB-75
SNB-78 = tested on: SNB-78
SR = tested on: SR
SW-620 = tested on: SW-620
TK-10 = tested on: TK-10
U-251 = tested on: U-251
UACC-257 = tested on: UACC-257
UACC-62 = tested on: UACC-62
UO-31 = tested on: UO-31

Compound: COC(=O)NC(=O)c1cn(C2OC(CO)C(O)C2O)c(=O)[nH]c1=O (centres undefined)
- GI50 (786-0): > 100 µM (inactive)
- GI50 (A549): > 100 µM (inactive)
- GI50 (ACHN): > 100 µM (inactive)
- GI50 (CAKI-1): > 100 µM (inactive)
- GI50 (COLO 205): > 100 µM (inactive)
- GI50 (DLD-1): > 100 µM (inactive)
- GI50 (HCC 2998): > 100 µM (inactive)
- GI50 (HCT-116): > 100 µM (inactive)
- GI50 (HCT-15): > 100 µM
- GI50 (HL-60): > 100 µM (inactive)
- GI50 (HOP-62): > 100 µM (inactive)
- GI50 (HOP-92): > 100 µM (inactive)
- GI50 (HT-29): > 100 µM (inactive)
- GI50 (IGROV-1): > 100 µM (inactive)
- GI50 (K562): > 100 µM (inactive)
- GI50 (KM-20L2): > 100 µM (inactive)
- GI50 (KM12): > 100 µM (inactive)
- GI50 (LOX IMVI): > 100 µM (inactive)
- GI50 (LXFL 529): > 100 µM (inactive)
- GI50 (M14): > 100 µM (inactive)
- GI50 (M19-MEL): > 100 µM (inactive)
- GI50 (MOLT-4): > 100 µM (inactive)
- GI50 (Malme-3M): > 100 µM (inactive)
- GI50 (NCI-H226): > 100 µM (inactive)
- GI50 (NCI-H23): > 100 µM (inactive)
- GI50 (NCI-H460): > 100 µM (inactive)
- GI50 (NCI-H522): > 100 µM (inactive)
- GI50 (OVCAR-3): > 100 µM (inactive)
- GI50 (OVCAR-4): > 100 µM (inactive)
- GI50 (OVCAR-5): > 100 µM (inactive)
- GI50 (OVCAR-8): > 100 µM (inactive)
- GI50 (RPMI-8226): > 100 µM (inactive)
- GI50 (SF-268): > 100 µM (inactive)
- GI50 (SF-295): > 100 µM (inactive)
- GI50 (SF-539): > 100 µM (inactive)
- GI50 (SK-MEL-28): > 100 µM (inactive)
- GI50 (SK-MEL-2): > 100 µM (inactive)
- GI50 (SK-OV-3): > 100 µM (inactive)
- GI50 (SN12C): > 100 µM (inactive)
- GI50 (SNB-19): > 100 µM (inactive)
- GI50 (SNB-75): > 100 µM (inactive)
- GI50 (SNB-78): > 100 µM (inactive)
- GI50 (SR): > 100 µM (inactive)
- GI50 (SW-620): > 100 µM (inactive)
- GI50 (TK-10): > 100 µM (inactive)
- GI50 (U-251): > 100 µM (inactive)
- GI50 (UACC-257): > 100 µM (inactive)
- GI50 (UACC-62): > 100 µM (inactive)
- GI50 (UO-31): > 100 µM (inactive)
